Test results published in the NIST ThermoML archive (doi:10.1007/s10765-010-0773-1).
± gives the expanded uncertainty stated by the source.

Experiment: xn = mol fraction of the nth substance listed
Details: 101 kPa, Liquid; for mass density: Vibrating tube method; for speed of sound: Pulse-echo method

BrCBr [dibromomethane] + CCCCCCC
Details	mass density [kg/m3]	speed of sound [m/s]
288.15 K, x1 = 0.1019	779.65 ± 0.27	–
288.15 K, x1 = 0.1838	861.49 ± 0.31	–
288.15 K, x1 = 0.2536	937.65 ± 0.37	–
288.15 K, x1 = 0.3055	998.83 ± 0.46	–
288.15 K, x1 = 0.4064	1130.32 ± 0.67	–
288.15 K, x1 = 0.5029	1274.13 ± 0.93	–
288.15 K, x1 = 0.6023	1444.97 ± 0.95	–
288.15 K, x1 = 0.6525	1541.56 ± 1	–
288.15 K, x1 = 0.7016	1644.24 ± 1.1	–
288.15 K, x1 = 0.8003	1878.69 ± 1.2	–
288.15 K, x1 = 0.8961	2149.52 ± 1.5	–
288.15 K, x1 = 1	2509.06 ± 1.9	–
292.87 K, x1 = 1	–	960.63 ± 1.5
292.88 K, x1 = 0.9019	–	946.13 ± 1.5
292.89 K, x1 = 0.1062	–	1104 ± 1.6
292.89 K, x1 = 0.2032	–	1066.3 ± 1.6
292.89 K, x1 = 0.304	–	1032.1 ± 1.6
292.9 K, x1 = 0.405	–	1002.4 ± 1.6
292.9 K, x1 = 0.4998	–	979.49 ± 1.5
292.91 K, x1 = 0.7043	–	946.92 ± 1.5
292.91 K, x1 = 0.8031	–	941.84 ± 1.5
292.92 K, x1 = 0.6048	–	959.47 ± 1.5
293.14 K, x1 = 0.2536	932.03 ± 0.37	–
293.14 K, x1 = 0.4064	1123.66 ± 0.65	–
293.14 K, x1 = 0.6023	1436.76 ± 0.93	–
293.14 K, x1 = 0.7016	1635.05 ± 1.1	–
293.15 K, x1 = 0.1019	774.91 ± 0.26	–
293.15 K, x1 = 0.1838	856.29 ± 0.31	–
293.15 K, x1 = 0.3055	992.87 ± 0.45	–
293.15 K, x1 = 0.5029	1266.74 ± 0.92	–
293.15 K, x1 = 0.6525	1532.85 ± 0.99	–
293.15 K, x1 = 0.8003	1868.4 ± 1.2	–
293.15 K, x1 = 0.8961	2138.01 ± 1.4	–
293.15 K, x1 = 1	2496.03 ± 1.9	–
298.14 K, x1 = 0.1838	851.06 ± 0.3	–
298.14 K, x1 = 0.2536	926.36 ± 0.37	–
298.14 K, x1 = 0.3055	986.88 ± 0.45	–
298.14 K, x1 = 0.6023	1428.45 ± 0.92	–
298.14 K, x1 = 0.7016	1625.79 ± 1.1	–
298.14 K, x1 = 0.8961	2126.46 ± 1.4	–
298.15 K, x1 = 0.1019	770.15 ± 0.26	–
298.15 K, x1 = 0.2032	–	1045.8 ± 1.6
298.15 K, x1 = 0.4064	1116.96 ± 0.65	–
298.15 K, x1 = 0.5029	1259.28 ± 0.91	–
298.15 K, x1 = 0.6525	1524.09 ± 0.98	–
298.15 K, x1 = 0.8003	1858.05 ± 1.2	–
298.15 K, x1 = 0.9019	–	931.96 ± 1.5
298.15 K, x1 = 1	2482.97 ± 1.8	947.15 ± 1.5
298.16 K, x1 = 0.1062	–	1082.4 ± 1.6
298.16 K, x1 = 0.304	–	1012.7 ± 1.6
298.17 K, x1 = 0.4998	–	962 ± 1.5
298.17 K, x1 = 0.8031	–	926.99 ± 1.5
298.18 K, x1 = 0.405	–	984.03 ± 1.5
298.18 K, x1 = 0.7043	–	931.29 ± 1.5
298.19 K, x1 = 0.6048	–	942.98 ± 1.5
303.11 K, x1 = 1	–	934.52 ± 1.5
303.13 K, x1 = 0.1062	–	1062.1 ± 1.6
303.13 K, x1 = 0.2032	–	1026.6 ± 1.6
303.13 K, x1 = 0.304	–	994.46 ± 1.5
303.13 K, x1 = 0.9019	–	918.63 ± 1.5
303.14 K, x1 = 0.6023	1420.11 ± 0.92	–
303.14 K, x1 = 0.8031	–	913 ± 1.5
303.15 K, x1 = 0.1019	765.35 ± 0.26	–
303.15 K, x1 = 0.1838	845.79 ± 0.3	–
303.15 K, x1 = 0.2536	920.67 ± 0.37	–
303.15 K, x1 = 0.3055	980.85 ± 0.45	–
303.15 K, x1 = 0.405	–	966.75 ± 1.5
303.15 K, x1 = 0.4064	1110.22 ± 0.64	–
303.15 K, x1 = 0.4998	–	945.56 ± 1.5
303.15 K, x1 = 0.5029	1251.79 ± 0.9	–
303.15 K, x1 = 0.6525	1515.27 ± 0.97	–
303.15 K, x1 = 0.7016	1616.48 ± 1	–
303.15 K, x1 = 0.7043	–	916.56 ± 1.5
303.15 K, x1 = 0.8003	1847.66 ± 1.2	–
303.15 K, x1 = 0.8961	2114.87 ± 1.4	–
303.15 K, x1 = 1	2469.88 ± 1.8	–
303.17 K, x1 = 0.6048	–	927.45 ± 1.5
308.1 K, x1 = 0.2032	–	1007.5 ± 1.6
308.1 K, x1 = 1	–	921.89 ± 1.5
308.11 K, x1 = 0.9019	–	905.33 ± 1.5
308.12 K, x1 = 0.1062	–	1041.9 ± 1.6
308.12 K, x1 = 0.304	–	976.3 ± 1.5
308.12 K, x1 = 0.4998	–	929.18 ± 1.5
308.13 K, x1 = 0.405	–	949.39 ± 1.5
308.13 K, x1 = 0.8031	–	899.01 ± 1.5
308.14 K, x1 = 0.6048	–	911.94 ± 1.5
308.14 K, x1 = 0.7043	–	901.84 ± 1.5
308.15 K, x1 = 0.1019	760.52 ± 0.26	–
308.15 K, x1 = 0.1838	840.49 ± 0.3	–
308.15 K, x1 = 0.2536	914.94 ± 0.37	–
308.15 K, x1 = 0.3055	974.78 ± 0.45	–
308.15 K, x1 = 0.4064	1103.44 ± 0.64	–
308.15 K, x1 = 0.5029	1244.25 ± 0.9	–
308.15 K, x1 = 0.6023	1411.72 ± 0.91	–
308.15 K, x1 = 0.6525	1506.41 ± 0.97	–
308.15 K, x1 = 0.7016	1607.12 ± 1	–
308.15 K, x1 = 0.8003	1837.22 ± 1.1	–
308.15 K, x1 = 0.8961	2103.24 ± 1.4	–
308.15 K, x1 = 1	2456.76 ± 1.8	–
313.14 K, x1 = 0.1019	755.67 ± 0.26	–
313.14 K, x1 = 0.5029	1236.67 ± 0.89	–
313.14 K, x1 = 0.6525	1497.49 ± 0.96	–
313.15 K, x1 = 0.1838	835.16 ± 0.3	–
313.15 K, x1 = 0.2536	909.16 ± 0.37	–
313.15 K, x1 = 0.3055	968.68 ± 0.45	–
313.15 K, x1 = 0.4064	1096.62 ± 0.63	–
313.15 K, x1 = 0.6023	1403.28 ± 0.9	–
313.15 K, x1 = 0.7016	1597.72 ± 1	–
313.15 K, x1 = 0.8003	1826.75 ± 1.1	–
313.15 K, x1 = 0.8961	2091.58 ± 1.4	–
313.15 K, x1 = 1	2443.59 ± 1.8	–
313.27 K, x1 = 1	–	908.83 ± 1.5
313.28 K, x1 = 0.2032	–	987.55 ± 1.5
313.28 K, x1 = 0.9019	–	891.54 ± 1.5
313.29 K, x1 = 0.1062	–	1021 ± 1.5
313.3 K, x1 = 0.304	–	957.58 ± 1.5
313.31 K, x1 = 0.405	–	931.52 ± 1.5
313.31 K, x1 = 0.4998	–	912.23 ± 1.5
313.31 K, x1 = 0.7043	–	886.55 ± 1.5
313.31 K, x1 = 0.8031	–	884.49 ± 1.5
313.32 K, x1 = 0.6048	–	895.85 ± 1.5
318.15 K, x1 = 0.1019	750.77 ± 0.26	–
318.15 K, x1 = 0.1838	829.78 ± 0.3	–
318.15 K, x1 = 0.2536	903.35 ± 0.36	–
318.15 K, x1 = 0.3055	962.53 ± 0.44	–
318.15 K, x1 = 0.4064	1089.75 ± 0.63	–
318.15 K, x1 = 0.5029	1229.04 ± 0.88	–
318.15 K, x1 = 0.6023	1394.79 ± 0.89	–
318.15 K, x1 = 0.6525	1488.53 ± 0.95	–
318.15 K, x1 = 0.7016	1588.27 ± 1	–
318.15 K, x1 = 0.8003	1816.27 ± 1.1	–
318.15 K, x1 = 0.8961	2079.95 ± 1.4	–
318.15 K, x1 = 1	2430.37 ± 1.8	–
